In patent US10213375B2, “Cosmetic or dermatological compositions combining cosmetiques retinaldehyde and glycylglycine oleamide and the cosmetic or dermatological uses thereof” (PIERRE FABRE DERMO-COSMETIQUE, priority 2013, dated 2019):
Where a SMILES comes first, the peptide text is derived from it.

Legend:
[1] = system: keratinocytes A431; assay: Modulation of retinylic esters induced by retinoids in keratinocytes (HPLC); assay type: cell-based; details: for Retinol / Retinylic esters: incubation 24 to 72 h, averaged values; for Total: retinol plus retinylic esters
Protocol: The study was carried out on keratinocytes A431 in a culture. Indeed, in these cells, no endogenous retinoid was measured. A retinoid has to be applied beforehand in order to measure cell retinoids. The retinoids were measured by HPLC. The incubation in the presence of various agents or combination of agents dissolved in 1% of ethanol in the culture medium, was carried out for 24 to 72 h. These are averaged values expressed in pmol/mg of protein.

[2] = system: CD44 and hyaluronate in follicular and interfollicular epidermis; details: topical application, mice; cited from earlier work
[3] = system: epidermal retinoids; details: hairless mice, topical 0.05% for 7 days, then UVB 1 J/cm^2, cited from earlier work; for Prevention of photo-induced depletion of epidermal retinylic esters / retinoids: assayed 24 h after radiation
[4] = target: T1, glucocerebrosidase (Homo sapiens, UniProt P04062); details: compared with reference 4-methylumbelliferyl glucopyranoside; cited from earlier work
T1 sequence (P04062 40-536): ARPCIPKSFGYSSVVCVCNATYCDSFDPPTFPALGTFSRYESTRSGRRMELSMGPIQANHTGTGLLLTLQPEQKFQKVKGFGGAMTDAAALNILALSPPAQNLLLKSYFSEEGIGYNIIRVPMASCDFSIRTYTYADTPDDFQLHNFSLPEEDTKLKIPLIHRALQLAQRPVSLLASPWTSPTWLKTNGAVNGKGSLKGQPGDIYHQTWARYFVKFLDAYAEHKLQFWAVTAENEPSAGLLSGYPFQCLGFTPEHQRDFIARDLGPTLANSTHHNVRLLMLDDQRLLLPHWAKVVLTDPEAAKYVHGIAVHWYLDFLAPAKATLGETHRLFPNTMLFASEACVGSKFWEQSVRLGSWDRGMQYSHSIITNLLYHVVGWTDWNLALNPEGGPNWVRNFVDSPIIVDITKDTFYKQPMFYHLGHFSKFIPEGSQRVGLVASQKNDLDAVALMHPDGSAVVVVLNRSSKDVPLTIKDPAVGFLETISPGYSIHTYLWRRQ

Molecule | Retinol ([1]; agent 15 μM in 1% ethanol) | Retinylic esters ([1]; agent 15 μM in 1% ethanol) | Total ([1]; agent 15 μM) | Induction / modulation of retinylic esters and cell retinoids in keratinocytes (in words) [1] | also measured
NCC(=O)NCC(=O)O [GG, glycylglycine] (H-Gly-Gly-OH) | <10 pmol/mg of protein | <10 pmol/mg of protein | <10 pmol/mg of protein | – | –
CCCCCCCC/C=C\CCCCCCCC(=O)O [OA, oleic acid] | <10 pmol/mg of protein | <10 pmol/mg of protein | <10 pmol/mg of protein | – | –
CC1=C(/C=C/C(C)=C/C=C/C(C)=C/C=O)C(C)(C)CCC1 [RAL, retinaldehyde] | – | – | – | induces a series of retinylic esters | Retinol ([1]; agent 2 μM in 1% ethanol): 865 pmol/mg of protein; Retinylic esters ([1]; agent 2 μM in 1% ethanol): 280 pmol/mg of protein; Total ([1]; agent 2 μM): 1145 pmol/mg of protein; Epidermal hyperplasia [2]: inducing epidermal hyperplasia; Expression of CD44 and of hyaluronate versus retinoic acid and retinol [2]: more strongly increased; Prevention of photo-induced depletion of epidermal retinylic esters / retinoids [3]: prevent photo-induced depletion of epidermal retinylic esters; Profile in the study of photo-induced depletion of retinoids [3]: best profile
CCCCCCCCCCCCCCCC(=O)OC/C=C(C)/C=C/C=C(C)/C=C/C1=C(C)CCCC1(C)C [ROL-Pal, retinyl palmitate] | 389 pmol/mg of protein | 178 pmol/mg of protein | 567 pmol/mg of protein | less cell retinoids than retinaldehyde | –
Cc1cc(O[C@@H]2O[C@H](CO)[C@@H](O)[C@H](O)[C@H]2O)cc2c1O[C@](C)(CCC[C@H](C)CCC[C@H](C)CCCC(C)C)CC2 [delta-tocopherol-glucopyranoside] | – | – | – | – | Release of delta-tocopherol on enzymatic hydrolysis [4]: slowly releases delta-tocopherol
CC1=C(/C=C/C(C)=C/C=C/C(C)=C/CO)C(C)(C)CCC1 [retinol, reference compound] | – | – | – | – | Prevention of photo-induced depletion of epidermal retinylic esters / retinoids [3]: prevent photo-induced depletion of epidermal retinylic esters
glycylglycine oleamide [OGG] | <10 pmol/mg of protein | <10 pmol/mg of protein | <10 pmol/mg of protein | significantly increased | –
